Test results published in ChEMBL document CHEMBL2150906, “Synthesis of a new [6]-gingerol analogue and its protective effect with respect to the development of metabolic syndrome in mice fed a high-fat diet” (J Med Chem, 2011).
Activity calls are given as the source filed them. The rule behind the calls is not given here.

Legend:
[1] = tested on: Mus musculus; assay: Reduction in FAS mRNA levels in HFD-induced obese Jcl:MCH mouse model liver administered as supplement for 86 days measured after 100 days by RT-PCR relative to HFD-fed control; format: functional, organism-based
[2] = tested on: Mus musculus; assay: Hypoglycemic activity in HFD-induced obese Jcl:MCH mouse model assessed as decrease in fasting blood glucose levels administered as supplement for 86 days measured after 92 to 94 days by OGTT relative to HFD-fed control; format: functional, organism-based
[3] = tested on: Mus musculus; assay: Reduction in serum insulin levels in HFD-induced obese Jcl:MCH mouse model administered as supplement for 86 days measured after 100 days by ELISA relative to HFD-fed control; format: functional, organism-based
[4] = tested on: Mus musculus; assay: Antiobesity activity in regular chow-fed Jcl:MCH mouse assessed as decrease in body weight administered as supplement for 86 days (reference value: 45.0 +/- 0.8 g); format: functional
[5] = tested on: Mus musculus; assay: Antiobesity activity in regular chow-fed Jcl:MCH mouse assessed as decrease in subcutaneous fat administered as supplement for 86 days measured after 90 days by MRI (reference value: 5.4 +/- 1.7%); format: functional; set-up: scale not given: the % may be the effect or the level left
[6] = tested on: Mus musculus; assay: Antiobesity activity in HFD-induced obese Jcl:MCH mouse model assessed as decrease in body weight administered as supplement for 86 days (reference value: 51.2 +/- 2.7 g); format: functional
[7] = tested on: Mus musculus; assay: Antiobesity activity in HFD-induced obese Jcl:MCH mouse model assessed as decrease in subcutaneous fat administered as supplement for 86 days measured after 90 days by MRI (reference value: 20.8 +/- 1.7 %); format: functional; set-up: scale not given: the % may be the effect or the level left
[8] = tested on: Mus musculus; assay: Antiobesity activity in HFD-induced obese Jcl:MCH mouse model assessed as decrease in visceral fat administered as supplement for 86 days measured after 90 days by MRI relative to control; format: functional
[9] = tested on: 3T3-L1; assay: Increase in adiponectin mRNA levels in TNFalpha-induced mouse 3T3L1 cells pretreated at 25 to 50 uM before TNF-alpha challenge relative to control; format: functional, cell-based
[10] = tested on: Mus musculus; assay: Reduction in ACC mRNA levels in HFD-induced obese Jcl:MCH mouse model liver administered as supplement for 86 days measured after 100 days by RT-PCR relative to HFD-fed control; format: functional, organism-based
[11] = Stability of the compound in simulated gastric fluid at pH 1.0 assessed as formation of shogaols; format: physicochemical; details: simulated gi fluid
[12] = tested on: Mus musculus; assay: Hypoglycemic activity in HFD-induced obese Jcl:MCH mouse model assessed as decrease in post prandial blood glucose levels administered as supplement for 86 days measured after 92 to 94 days by OGTT relative to HFD-fed control; format: functional, organism-based
[13] = tested on: 3T3-L1; assay: Increase in adiponectin mRNA levels in TNFalpha-induced mouse 3T3L1 cells pretreated at 50 uM before TNF-alpha challenge relative to control; format: functional, cell-based
[14] = tested on: Mus musculus; assay: Reduction in TNFalpha mRNA levels in HFD-induced obese Jcl:MCH mouse model adipose tissue administered as supplement for 86 days measured after 100 days by RT-PCR relative to HFD-fed control; format: functional, organism-based
[15] = tested on: Mus musculus; assay: Reduction in serum leptin levels in HFD-induced obese Jcl:MCH mouse model administered as supplement for 86 days measured after 100 days by ELISA relative to HFD-fed control; format: functional, organism-based
[16] = tested on: Mus musculus; assay: Reduction in leptin mRNA levels in HFD-induced obese Jcl:MCH mouse model adipose tissue administered as supplement for 86 days measured after 100 days by RT-PCR relative to HFD-fed control; format: functional, organism-based
[17] = tested on: Mus musculus; assay: Reduction in SREBP1c mRNA levels in HFD-induced obese Jcl:MCH mouse model administered as supplement for 86 days measured after 100 days by RT-PCR relative to HFD-fed control; format: functional, organism-based
[18] = Stability of the compound in 6 N HCl assessed as formation of shogaols; format: physicochemical; details: buffer
[19] = tested on: 3T3-L1; assay: Increase in adiponectin mRNA levels in TNFalpha-induced mouse 3T3L1 cells pretreated at 10 uM before TNF-alpha challenge relative to control; format: functional, cell-based

## CCCCCC(O)CC(=O)NCc1ccc(O)c(OC)c1 (configuration not stated)
[1]
  Activity: Active
[2]
  Activity: Active
[3]
  Activity: Active
[4]
  Activity: 41.6 g
[5]
  Activity: 6.7%
[6]
  Activity: 41.6 g
[7]
  Activity: 10.9%
[8]
  Activity: 1.84 g
[9]
  Activity: Active
[10]
  Activity: Active
[11]
  Stability: Stable
[12]
  Activity: Active
[13]
  Activity: Active
[14]
  Activity: Active
[15]
  Activity: Active
[16]
  Activity: Active
[17]
  Activity: Active
[18]
  Stability: Stable

## CN(CCOc1ccc(CC2SC(=O)NC2=O)cc1)c1ccccn1 (configuration not stated)
[19]
  Activity: Active

## CCCCCC(O)CC(=O)CCc1ccc(O)c(OC)c1 (configuration not stated)
[1]
  Activity: Active
[2]
  Activity: Active
[3]
  Activity: Active
[6]
  Activity: 47.1 g
[7]
  Activity: 6.7%
[8]
  Activity: 3.5 g
[9]
  Activity: Active
[10]
  Activity: Active
[12]
  Activity: Active
[14]
  Activity: Active
[15]
  Activity: Active
[16]
  Activity: Active
[17]
  Activity: Active
